# Patent publication US11981618B2, “P62 ligand compound, and composition for preventing, ameliorating or treating proteinopathies comprising the same” (AUTOTAC INC., priority 2018, dated 2024)
# “Also recorded” adds a separate entry of the source.
# Key:
# [1] = biological target: T1, p62 protein (Homo sapiens, UniProt Q13501); assay: Oligomerization activity of p62 protein in cultured cells by immunoblotting; format: cell-based; conditions: HEK293 cell lysate treated with test compounds at room temperature for 2 hours; immunoblot, FIG. 2
# T1 construct: endogenous in cells; host or cells: HEK293 (cell lysate treated with compounds)
# Description: In order to evaluate the p62 protein oligomerization activity efficacy by the compounds (Examples 1-19), HEK293 cell line, which is human embryonic kidney-derived cell, was collected. As representative compounds among the present compounds, YOK-1104, YOK-2204, YOK-3304, YOK-1204, YOK-4404, YOK-1107, YOK-1109, YOK-2207, YOK-2209, YT-4-1, YT-4-2, YT-6-1, YT-6-2, YT-6-7, YT-6-8, YT-9-1, YT-9-2 were selected. In order to measure intracellular p62 protein activation and oligomerization according to the treatment with these selected representative compounds, the respective cells were dispensed into a pi dish. The cells were collected after further culturing for 24 hours so that the cells were completely attached to the surface of the plate. 100 ul of lysis buffer (20 mM Tris, pH 7.4), 150 mM NaCl, 1% Triton X-100, 2 mM NaF, 2 mM EDTA, 2 mM beta-glycerophosphate, 5 mM sodium orthovanadate, 1 mM PMSF, leupeptin, aprotinin) were injected into each sample and the cells were lysed. Based on the measured total protein concentration, each sample was treated with test compounds at room temperature for 2 hours, and then a sample buffer was added and allowed to react at 95° C. for 10 minutes. 25 ul was taken from the samples after the reaction, and dispensed into each well of acrylamide gel, and then immunoblotting was performed.
# [2] = tested on: LC3; assay: Autophagy activity in cultured cells by immunoblotting using LC3 as a marker; format: cell-based, human; conditions: HeLa; for autophagy activity (level of LC3), control compounds: different concentrations and different times, FIG. 5
# Experimental: In order to evaluate the autophagy activity efficacy by the compounds (Examples 1-19), HeLa cell line, which is a cell line derived from a cervical cancer patient, was cultured using a DMEM medium containing 10% FBS and 1% streptomycin/penicillin in an incubator with 5% carbon dioxide. As representative compounds among the present compounds, YOK-1107, YOK-4404 and YOK-1104 were selected. In order to measure autophagy activity according to the treatment with these selected representative compounds, the respective cells were dispensed into 6 well plates. Additional cultures were performed […] so that the cells were completely attached to the surface of the plate. To find the concentration at which the respective compounds could increase the phenomenon of autophagy, the test compounds were diluted at 1, 2, 5, 10 and 20 μM and treated. After treatment with the respective compounds, the cells were cultured again in a cell incubator for 24 hours, and then the cells were collected. To extract proteins from the collected cells, 100 ul of lysis buffer (20 mM Tris (pH 7.4), 150 mM NaCl, 1% Triton X-100, 2 mM NaF, 2 mM EDTA, 2 mM beta-glycerophosphate, 5 mM sodium orthovanadate, 1 mM PMSF, leupeptin, aprotinin) was injected into each sample, and cells were lysed. Based on the measured total protein concentration, a sample buffer was added to each sample and allowed to react at 100° C. for 5 minutes. 5 ul was taken from the samples after the reaction, and dispensed into each well of acrylamide gel, and then immunoblotting was performed.
# In order to investigate the autophagy activity efficacy by the compounds (Examples 1-19), immunoblotting was performed in the same manner as in Experimental Example 2 using LC3 as a marker. As for the difference, in order to evaluate the treatment time required for activation and the activity retention time, as the representative compounds selected among the present compounds, 5 μM of YOK-1107, YOK-1204, YOK-1304, YOK-2204, YOK-3304, […] treated for 1, 3, 6, 12, 24, 48 hours. On the other hand, as the representative compounds selected among the compounds of the present invention, […] YOK-1107, YOK-1109, YOK-2207, YOK-2209, YT-4-1, YT-4-2, YT-6-1, YT-6-2, YT-6-8, YT-6-7, YT-9-1, YT-9-2 were treated for 24 hours.
# In order to investigate the autophagy activity efficacy of control compounds, immunoblotting was performed in the same manner as in Experimental Example 2 by using LC3 as a marker. As the control compounds, compounds having the following structure were used.
# [3] = treated for 24 hours (concentration not given), FIG. 4
# [4] = 1, 2, 5, 10 and 20 μM, 24 hours, FIG. 3
# T1 sequence (Q13501 whole entry): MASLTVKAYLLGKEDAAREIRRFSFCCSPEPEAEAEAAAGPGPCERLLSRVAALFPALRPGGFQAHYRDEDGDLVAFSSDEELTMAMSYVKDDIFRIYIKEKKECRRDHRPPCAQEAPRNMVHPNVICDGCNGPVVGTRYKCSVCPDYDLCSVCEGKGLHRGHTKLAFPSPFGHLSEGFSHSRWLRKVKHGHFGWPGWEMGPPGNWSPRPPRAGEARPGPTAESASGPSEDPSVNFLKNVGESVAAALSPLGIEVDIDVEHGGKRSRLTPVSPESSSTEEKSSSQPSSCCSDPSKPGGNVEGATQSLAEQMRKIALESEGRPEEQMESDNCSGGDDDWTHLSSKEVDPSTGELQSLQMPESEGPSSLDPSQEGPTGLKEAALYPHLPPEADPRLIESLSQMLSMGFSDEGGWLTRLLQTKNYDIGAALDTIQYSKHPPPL
SMILES,"p62 protein oligomerization activity (p62 monomer, oligomers and high-molecular aggregates) [1]","autophagy activity (level of LC3) [2, 3]","autophagy activity (level of LC3), control compounds [2]",other results
"CC(C)NC[C@@H](O)COc1ccc(OCc2ccc(F)cc2)c(OCc2ccc(F)cc2)c1 [YT-4-2, (R)-1-(3,4-bis((4-fluorobenzyl)oxy)phenoxy)-3-(isopropylamino)propan-2-ol]",increasing the p62 protein oligomerization activity,gradually increased,,
"OCCNC[C@@H](O)COc1cccc(OCc2ccc(Cl)cc2)c1 [YT-6-7, (R)-1-(3-((4-chlorobenzyl)oxy)phenoxy)-3-((2-hydroxyethyl)amino)propan-2-ol]",increasing the p62 protein oligomerization activity,gradually increased,,
"O=Cc1ccc(OCc2ccccc2)c(OCc2ccccc2)c1 [Example 1101, 3,4-bis(benzyloxy)benzaldehyde, reference compound]",,,do not increase autophagy activity,
N=C(N)NCCNC[C@@H](O)COc1ccc(OCc2ccc(F)cc2)c(OCc2ccc(F)cc2)c1 [YT-9-2],increasing the p62 protein oligomerization activity,gradually increased,,
"O=Cc1ccc(OCc2ccccc2)c(OCCCCc2ccccc2)c1 [Example 1401, 4-(benzyloxy)-3-(4-phenylbutoxy)benzaldehyde, reference compound]",,,do not increase autophagy activity,
"O=Cc1ccc(OCCCc2ccccc2)c(OCCCc2ccccc2)c1 [Example 3301, 3,4-bis(3-phenylpropoxy)benzaldehyde]",,,,"autophagy activity (level of LC3) [2, 4]: increasing the autophagy activity"
"Oc1ccc(OCc2ccccc2)c(OCc2ccccc2)c1 [Example 1102, 3,4-bis(benzyloxy)phenol, reference compound]",,,do not increase autophagy activity,
"N=C(N)NCCNC[C@@H](O)COc1ccc(OCc2ccccc2)c(OCc2ccccc2)c1 [YOK-1109, (R)-1-(2-((3-(3,4-bis(benzyloxy)phenoxy)-2-hydroxypropyl)amino)ethyl)guanidine]",increasing the p62 protein oligomerization activity,gradually increased,,
"OCCNC[C@@H](O)COc1cccc(OCc2ccc(F)cc2)c1 [YT-6-8, (R)-1-(3-((4-fluorobenzyl)oxy)phenoxy)-3-((2-hydroxyethyl)amino)propan-2-ol]",increasing the p62 protein oligomerization activity,gradually increased,,
"CC(C)NC[C@@H](O)COc1ccc(OCc2ccccc2)c(OCc2ccccc2)c1 [YOK-1104, (R)-1-(3,4-bis(benzyloxy)phenoxy)-3-(isopropylamino)propan-2-ol]",increasing the p62 protein oligomerization activity,,,"autophagy activity (level of LC3) [2, 4]: increasing the autophagy activity"
"Oc1ccc(OCc2ccccc2)c(OCCc2ccccc2)c1 [Example 1202, 4-(benzyloxy)-3-phenethoxyphenol, reference compound]",,,do not increase autophagy activity,
"c1ccc(CCOc2cc(OC[C@H]3CO3)ccc2OCc2ccccc2)cc1 [Example 1203, (R)-2-((4-(benzyloxy)-3-phenethoxyphenoxy)methyl)oxirane, reference compound]",,,do not increase autophagy activity,
"Oc1ccc(OCCc2ccccc2)c(OCCc2ccccc2)c1 [Example 2202, 3,4-diphenethoxyphenol, reference compound]",,,do not increase autophagy activity,
"Oc1ccc(OCCCCc2ccccc2)c(OCCCCc2ccccc2)c1 [Example 4402, 3,4-bis(4-phenylbutoxy)phenol, reference compound]",,,do not increase autophagy activity,
OCCNC[C@@H](O)COc1ccc(OCc2ccc(F)cc2)c(OCc2ccc(F)cc2)c1 [YT-6-2],increasing the p62 protein oligomerization activity,gradually increased,,
N=C(N)NCCNC[C@@H](O)COc1ccc(OCc2ccc(Cl)cc2)c(OCc2ccc(Cl)cc2)c1 [YT-9-1],increasing the p62 protein oligomerization activity,gradually increased,,
"N=C(N)NCCNC[C@@H](O)COc1ccc(OCCc2ccccc2)c(OCCc2ccccc2)c1 [YOK-2209, (R)-1-(2-((3-(3,4-diphenethoxyphenoxy)-2-hydroxypropyl)amino)ethyl)guanidine]",increasing the p62 protein oligomerization activity,gradually increased,,
OCCNC[C@@H](O)COc1ccc(OCc2ccc(Cl)cc2)c(OCc2ccc(Cl)cc2)c1 [YT-6-1],increasing the p62 protein oligomerization activity,gradually increased,,
"O=Cc1ccc(OCCc2ccccc2)c(OCCc2ccccc2)c1 [Example 2201, 3,4-diphenethoxybenzaldehyde, reference compound]",,,do not increase autophagy activity,
"N=C(N)NC[C@@H](O)COc1ccc(OCCc2ccccc2)c(OCCc2ccccc2)c1 [YOK-2207, (R)-1-(3-(3,4-diphenethoxyphenoxy)-2-hydroxypropyl)guanidine]",increasing the p62 protein oligomerization activity,gradually increased,,
"O=Cc1ccc(OCc2ccccc2)c(OCCc2ccccc2)c1 [Example 1201, 4-(benzyloxy)-3-phenethoxybenzaldehyde, reference compound]",,,do not increase autophagy activity,
"c1ccc(COc2ccc(OC[C@H]3CO3)cc2OCc2ccccc2)cc1 [Example 1103, (R)-2-((3,4-bis(benzyloxy)phenoxy)methyl)oxirane, reference compound]",,,do not increase autophagy activity,
"CC(C)NC[C@@H](O)COc1ccc(OCc2ccccc2)c(OCCCc2ccccc2)c1 [YOK-1304, (R)-1-(4-(benzyloxy)-3-(3-phenylpropoxy)phenoxy)-3-(isopropylamino)propan-2-ol]",,,,"autophagy activity (level of LC3) ([2]; 5 μM, treated for 1, 3, 6, 12, 24, 48 hours, FIG. 4): gradually increased; also recorded: increasing the autophagy activity"
"O=Cc1ccc(OCc2ccccc2)c(OCCCc2ccccc2)c1 [Example 1301, 4-(benzyloxy)-3-(3-phenylpropoxy)benzaldehyde, reference compound]",,,do not increase autophagy activity,
"Oc1ccc(OCc2ccccc2)c(OCCCCc2ccccc2)c1 [Example 1402, 4-(benzyloxy)-3-(4-phenylbutoxy)phenol, reference compound]",,,do not increase autophagy activity,
"Oc1ccc(OCc2ccccc2)c(OCCCc2ccccc2)c1 [Example 1302, 4-(benzyloxy)-3-(3-phenylpropoxy)phenol, reference compound]",,,do not increase autophagy activity,
